Assay results reported in the supplement of paper PMC10307832.

Assays:
Assay in all cases: relative viability (nuclei count vs DMSO), 5 days (fraction); higher = more cells survive
[1] = compound: C1=CC2=NC=CN=C2C=C1/C=C/3\C(=O)NC(=O)S3 + Cc1cc(Nc2cc(N3CCN(C)CC3)nc(Sc3ccc(NC(=O)C4CC4)cc3)n2)n[nH]1 [Tozasertib] (partner 0.1 µM)
In short: (§1)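 A single step with final 0.05% Triton X-100, 1% formaldehyde and 1 ug/ml Hoechst fixed the cells and stained nuclei 5 days after treatment. Lung cancer cell lines in 1536-well plates had been treated by pin tool the day after seeding with one drug alone or a fixed anchor-drug dose plus five library-drug doses (not always all listed) in √10 steps, and nuclei were counted on 4× images. Relative viability is the ratio of nuclei in treated wells to nuclei in vehicle wells, taken as the median of duplicate plates.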

[2] = compound: CCN1CCN(c2ccc(Nc3cc(N(C)C(=O)Nc4c(Cl)c(OC)cc(OC)c4Cl)ncn3)cc2)CC1 [BGJ398] + C[C@]1(O)C[C@@H](c2nc(-c3ccc4ccc(-c5ccccc5)nc4c3)c3c(N)nccn32)C1 [Linsitinib] (partner 1 µM)
In short: as §1

[3] = compound: CCN1CCN(c2ccc(Nc3cc(N(C)C(=O)Nc4c(Cl)c(OC)cc(OC)c4Cl)ncn3)cc2)CC1 [BGJ398] + CC(=O)c1c(C)c2cnc(Nc3ccc(N4CCNCC4)cn3)nc2n(C2CCCC2)c1=O [Palbociclib] (partner 0.5 µM)
In short: as §1

[4] = compound: CCN1CCN(c2ccc(Nc3cc(N(C)C(=O)Nc4c(Cl)c(OC)cc(OC)c4Cl)ncn3)cc2)CC1 [BGJ398] + CC1(C)CCC(c2ccc(Cl)cc2)=C(CN2CCN(c3ccc(C(=O)NS(=O)(=O)c4ccc(N[C@H](CCN5CCOCC5)CSc5ccccc5)c(S(=O)(=O)C(F)(F)F)c4)cc3)CC2)C1 [Navitoclax] (partner 0.5 µM)
In short: as §1

Row | Cell Line | relative viability ([1]; first compound 0.02 µM) | relative viability ([1]; first compound 0.06325 µM) | relative viability ([1]; first compound 0.2 µM) | relative viability ([1]; first compound 0.6325 µM) | relative viability ([1]; first compound 2 µM) | relative viability ([2]; first compound 0.01 µM) | relative viability ([2]; first compound 0.03162 µM) | relative viability ([2]; first compound 0.1 µM) | relative viability ([2]; first compound 0.3162 µM) | relative viability ([2]; first compound 1 µM) | relative viability ([3]; first compound 0.01 µM) | relative viability ([3]; first compound 0.03162 µM) | relative viability ([3]; first compound 0.1 µM) | relative viability ([3]; first compound 0.3162 µM) | relative viability ([3]; first compound 1 µM) | relative viability ([4]; first compound 0.01 µM) | relative viability ([4]; first compound 0.03162 µM) | relative viability ([4]; first compound 0.1 µM) | relative viability ([4]; first compound 0.3162 µM) | relative viability ([4]; first compound 1 µM)
1 | HARA | 0.0982 | 0.133 | 0.128 | 0.104 | 0.11 | 0.845 | 0.856 | 0.903 | 0.978 | 0.902 | 0.242 | 0.257 | 0.228 | 0.289 | 0.188 | 1.11 | 1.14 | 1.19 | 1.13 | 1.05
2 | NCI-H838 | 0.299 | 0.271 | 0.221 | 0.238 | 0.242 | 0.94 | 0.979 | 0.927 | 0.919 | 0.716 | 0.203 | 0.203 | 0.217 | 0.22 | 0.195 | 1.08 | 1.11 | 1.03 | 0.907 | 0.917
3 | NCI-H1755 | 0.585 | 0.562 | 0.66 | 0.51 | 0.49 | 0.93 | 1.01 | 0.983 | 0.955 | 1.01 | 0.464 | 0.473 | 0.461 | 0.468 | 0.441 | 0.984 | 1.04 | 0.986 | 0.968 | 1.07
4 | HCC-78 | 0.384 | 0.339 | 0.408 | 0.394 | 0.354 | 0.378 | 0.463 | 0.614 | 0.541 | 0.546 | 0.44 | 0.472 | 0.492 | 0.455 | 0.459 | 0.734 | 0.751 | 0.935 | 0.879 | 0.823
5 | NCI-H322M | 0.523 | 0.466 | 0.482 | 0.461 | 0.425 | 0.863 | 0.788 | 0.978 | 0.935 | 0.999 | 0.493 | 0.43 | 0.472 | 0.491 | 0.521 | 1.23 | 1.26 | 1.05 | 1.2 | 1.31
6 | NCI-H3122 | 0.401 | 0.418 | 0.331 | 0.38 | 0.4 | 1 | 1.06 | 0.997 | 1.05 | 1.02 | 0.174 | 0.166 | 0.175 | 0.176 | 0.227 | 0.989 | 1.01 | 1.06 | 0.984 | 1.05
7 | COR-L23 | 0.168 | 0.218 | 0.19 | 0.211 | 0.188 | 0.929 | 0.873 | 1.04 | 0.975 | 0.923 | 0.299 | 0.332 | 0.269 | 0.288 | 0.273 | 1.05 | 0.978 | 0.986 | 0.966 | 1.08
8 | NCI-H2087 | 0.206 | 0.273 | 0.212 | 0.243 | 0.238 | 0.973 | 0.886 | 0.988 | 0.922 | 0.881 | 0.266 | 0.224 | 0.204 | 0.282 | 0.184 | 0.847 | 0.973 | 0.83 | 0.974 | 0.741
9 | LC-2-ad | 0.444 | 0.353 | 0.46 | 0.406 | 0.449 | 0.827 | 0.88 | 0.817 | 0.87 | 0.843 | 0.477 | 0.516 | 0.5 | 0.524 | 0.499 | 0.366 | 0.575 | 0.519 | 0.612 | 0.392
10 | NCI-H1915 | 0.452 | 0.48 | 0.41 | 0.418 | 0.428 | 1.05 | 1.04 | 1.12 | 1.19 | 1.13 | 0.525 | 0.533 | 0.532 | 0.529 | 0.556 | 0.73 | 0.786 | 0.774 | 0.77 | 0.766
11 | NCI-H1793 | 0.392 | 0.273 | 0.38 | 0.324 | 0.281 | 0.804 | – | 0.833 | 0.71 | 0.756 | 0.321 | 0.271 | 0.286 | 0.237 | 0.309 | 0.417 | – | 0.391 | 0.251 | 0.326
12 | NCI-H2023 | 0.404 | 0.321 | 0.472 | 0.379 | 0.335 | 0.602 | 0.831 | 0.657 | 0.688 | 0.646 | 0.341 | 0.493 | 0.285 | 0.456 | 0.404 | 0.953 | 1.01 | 1.01 | 1.02 | 0.993
13 | COR-L 105 | 0.311 | 0.369 | 0.343 | 0.349 | 0.354 | 0.824 | 1.09 | 0.851 | 0.777 | 0.8 | 0.47 | 0.357 | 0.445 | 0.378 | 0.383 | 0.707 | 0.805 | 0.815 | 0.827 | 0.598
14 | RERF-LC-KJ | 0.443 | 0.613 | 0.592 | 0.452 | 0.46 | 0.863 | 0.894 | 0.901 | 0.865 | 0.945 | 1.13 | 0.781 | 1.17 | 1.11 | 1.23 | 0.98 | 1.09 | 0.901 | 1.06 | 0.936
15 | LXF-289 | 0.186 | 0.147 | 0.185 | 0.185 | 0.168 | 0.944 | 0.886 | 0.883 | 0.84 | 0.899 | 0.584 | 0.549 | 0.564 | 0.531 | 0.552 | 0.933 | 0.905 | 0.892 | 0.873 | 0.831
16 | PC-14 | 0.579 | 0.754 | 0.571 | 0.546 | 0.572 | 0.902 | 1.05 | 0.902 | 1 | 1.06 | 0.505 | 0.524 | 0.664 | – | 0.513 | 1.01 | 1.05 | 1.06 | 1.04 | 0.998
